Values after ≈ are worked out from the molar mass of the structure shown. Values joined by “and” are separate entries in the source; they are usually repeats but may differ in a detail not shown here. Equal values may be shown once. Read-outs that look alike come from different tables or passages of the source.
Experiments:
[1] = tested on: Flavobacterium columnare ALM-00-173; test: rapid 96-well microplate antibacterial bioassay against F. columnare; type: cell-based; settings: F. columnare ALM-00-173; for IC50 / MIC: Flavobacterium columnare; for IC50: ALM00173, 24 h; for MIC: ALM00173, read-out: MIC (minimum inhibitory concentration); for MIC / MIC (minimum inhibitory concentration): 24 h; for MIC RDCF (relative-to-drug-control florfenicol): MIC divided by MIC of florfenicol
Source text: An isolate of F. columnare [isolate ALM-00-173 (genomovar II)] was obtained from Dr. Covadonga Arias (School of Fisheries, Aquaculture and Aquatic Sciences, Auburn University, Auburn, Ala.). In order to assure purity, cultures of F. columnare ALM-00-173 were maintained separately on modified Shieh (MS) agar plates (pH 7.2-7.4) (Decostere, A., et al., Laboratory Animals, 36: 396-402 (2003)). Prior to conducting the bioassay, colonies of F. columnare ALM-00-173 were used to prepare the assay culture material by culturing in 75 mL of MS broth for 24 h at 29±1° C. at 150 rpm on a rotary shaker (model C24KC; New Brunswick Scientific, Edison, N.J.). After overnight incubation, a 0.5 McFarland standard of F. columnare ALM-00-173 culture material was prepared by transferring cells from the broth culture to fresh MS broth (Schrader, K. K., and M. D. Harries, Aquaculture Research, 37: 928-937 (2006)).
(§1) The pure test compounds (−)-diplopyrone and (−)-diplopyrone acetate were dissolved in technical grade 100% methanol while (−)-diplopyrone nitrile was dissolved in technical grade 100% acetone. The three test compounds were evaluated for antibacterial activity against F. columnare ALM-00-173 and E. ictaluri S02-1039 using a rapid 96-well microplate bioassay and following previous procedures (Schrader and Harries 2006). Florfenicol was included as a positive drug control. Control wells (no test material added) were also included in each assay. Final test concentrations of compounds and florfenicol were 0.01, 0.1, 1.0, 10.0, 100.0, and 1000.0 μM. Three replications were used for each dilution of each test compound and drug control, and final results were converted to units of mg/L to allow comparison with previous studies.
(§2) The 24-h 50% inhibition concentration (IC50) and minimum inhibitory concentration (MIC) were determined using sterile 96-well (flat bottom) polystyrene microplates (Corning Costar Corp., Acton, Mass.) for (−)-diplopyrone and (−)-diplopyrone acetate. In order to prevent solvent interaction with polystyrene, sterile 96-well (flat bottom) quartz microplates (Hellma Cells, Inc., Forest Hills, N.Y.) were used for (−)-diplopyrone nitrile. Initially, dissolved test compounds or florfenicol were micropippeted separately into individual microplate wells (10 μL/well), and the solvent was allowed to completely evaporate before 0.5 MacFarland bacterial culture was added to the microplate wells (200 μL/well). Microplates were incubated at 29±1° C. (VWR model 2005 incubator; Sheldon Manufacturing, Inc., Cornelius, Oreg.). A microplate photometer (SpectraCount, Packard Instrument Company, Meriden, Conn.) was used to measure the absorbance (630 nm) of the microplate wells at time 0 and 24-h. Two replicates of each microplate bioassay were made. Cell viability of F. columnare ALM-00-173 and E. ictaluri S02-1039 was determined at the completion of the growth bioassay for each test compound using the yellow dye 3(4,5-dimethylthiazol-2-yl)-2,5-diphenyl tetrazolium bromide (MTT) and previously outlined procedures (Schrader and Harries 2006). In addition, the minimum bactericidal concentration (MBC) was determined for very active compounds (Schrader and Harries 2006).
(§3) The means and standard errors of absorbance measurements were calculated, graphed, and compared to controls to determine the MIC, 24-h IC50, and MTT 24-h IC50 for each test compound. The 24-h IC50 and MIC results for each test compound were divided by the respective 24-h IC50 and MIC results obtained for the positive control florfenicol to determine the relative-to-drug-control florfenicol (RDCF) values.

[2] = tested on: Edwardsiella ictaluri S02-1039; test: rapid 96-well microplate antibacterial bioassay against E. ictaluri; type: cell-based; settings: E. ictaluri S02-1039; for IC50: S021039, 24 h; for MIC / MIC (minimum inhibitory concentration): 24 h; for MIC: read-out: MIC (minimum inhibitory concentration); for MIC RDCF (relative-to-drug-control florfenicol): MIC divided by MIC of florfenicol
Source text: An isolate of E. ictaluri (isolate S02-1039) was obtained from a person (formerly with the College of Veterinary Medicine, Mississippi State University, Stoneville, Miss.). In order to assure purity, cultures of E. ictaluri S02-1039 were maintained on 3.8% Mueller-Hinton (MH) agar plates (pH 7.3) (Becton, Dickinson and Company, Sparks, Md.). Prior to conducting the bioassay, colonies of E. ictaluri S02-1039 were used to prepare assay culture material by aseptically transferring bacterial cells from colonies to 45 mL of 3.8% MH broth to form a bacterial cell density of 0.5 McFarland standard.
as §1, §2, §3

[3] = tested on: Lemna paucicostata (L.) Hegelm. (duckweed); settings: commercial herbicides; Michel et al. 2004; read-out: IC50 in the same duckweed bioassay; cited from earlier work
[4] = tested on: Lemna paucicostata (L.) Hegelm. (duckweed); test: duckweed phytotoxicity bioassay (growth by frond area); type: in vivo; settings: for visual symptoms: 7 days of exposure, FIG. 7
Method: Pyranopyran (2), pyranopyran acetate (3), and pyranopyran nitrile (4) were also evaluated for phytotoxic activity using the aquatic plant Lemna paucicostata (L.) Hegelm. (duckweed). Dose-response curves from the aquatic plant Lemna paucicostata (L.) Hegelm. (duckweed) were obtained from experiments conducted. Duckweed was grown and treated as described by Michel et al. (Michel, A., et al., Environ. Toxicol. Chem., 23: 1074-1079 (2004)) with slight modifications. Duckweed stocks were cultivated from single L. paucicostata colonies (an aggregate of one mother and two daughter fronds to assure genetic uniformity) in Hoagland's No. 2 basal salt mixture with added iron (1000× Fe-EDTA solution, pH 5.5) in sterile trays. The plants were grown in a growth chamber under the following controlled conditions: continuous light at 26° C. and 120 μmol·s^−1·m^−2 photosynthetically active radiation. Hoagland solution was changed every two days. Bioassays were conducted in sterile […] (Falcon, Corning Life Science). Each well contained 5 mL with 1% EtOH with or without test compounds. Test compounds were dissolved in EtOH. A graphic template of the six-well plates was used for LemnaTec (LemnaTec, Würselen, Germany) image analysis software. Treatment plates, with two three-frond plants of the approximately same size per well, were incubated during 7 days of treatment. Each treatment was replicated three times. IC50 values (concentration of test compound that inhibits growth 50%) were determined with R statistics software. Effects on growth are evaluated by measuring area of the plant fronds with image analysis.

[5] = absorbance 630 nm, SE in parentheses
[6] = absorbance 630 nm, SE in parentheses, read-out: 24-h IC50 (50% inhibition concentration)
[7] = Edwardsiella ictaluri, absorbance 630 nm, SE in parentheses, read-out: 24-h IC50 (50% inhibition concentration)
[8] = Edwardsiella ictaluri, S021039, SE in parentheses
[9] = tetrazolium bromide dye MTT, read-out: MTT 24-h IC50 (cell viability)
[10] = Edwardsiella ictaluri, tetrazolium bromide dye MTT, read-out: MTT 24-h IC50 (cell viability)

24-h IC50 (50% inhibition concentration) [1, 5]	IC50 [1, 6] [µg/mL]	MIC ([1]; SE in parentheses) [µg/mL]	24-h IC50 (50% inhibition concentration) [2, 5]	IC50 [2, 7] [µg/mL]	MIC [2, 8] [µg/mL]	MIC (minimum inhibitory concentration) ([1]; SE in parentheses)	MIC RDCF (relative-to-drug-control florfenicol) [1]	MIC (minimum inhibitory concentration) ([2]; SE in parentheses)	MIC RDCF (relative-to-drug-control florfenicol) [2]	Compound	other results
0.54 mg/L	0.69 (≈ 1.93 µM)	0.36 (≈ 1 µM)	0.14 mg/L	0.18 (≈ 0.502 µM)	0.36 (≈ 1 µM)	–	–	–	–	CS(=O)(=O)c1ccc([C@@H](O)[C@@H](CF)NC(=O)C(Cl)Cl)cc1 [Florfenicol, reference compound]	–
–	7.5 ± 0.5 (≈ 42.3 µM)	17.7 (≈ 99.9 µM)	–	7.7 ± 1.2 (≈ 43.5 µM)	0.002 (≈ 0.0113 µM)	17.7 (0) mg/L	49.2 (0)	0.002 (0) mg/L	0.5 (0)	N#C[C@@H]1C=C[C@H]2OC(=O)C=C[C@H]2O1 [Pyranopyran nitrile (4), (4aR,6S,8aR)-6-Cyano-6,8a-dihydropyrano-[3,2-b]pyran-2(4aH)-one]	melting point: 162 to 164 °C; IC50 [1, 9]: 16.8 ± 0.9 µg/mL (≈ 94.8 µM); IC50 ([4]; Lemna aequinoctialis, 144 h, Lemna paucicostata growth, frond area, FIG. 6, 6 days of exposure, read-out: IC50 (concentration that inhibits growth 50%)): < 1000 nM; visual symptoms ([4]; at 33 μM and higher): some of the plants had no chlorophyll and were necrotic; visual symptoms ([4]; at 100 μM): many of the plants were devoid of chlorophyll and necrotic; MIC RDCF (relative-to-drug-control florfenicol) ([2]; listed as pyranopyran nitrile (4)): 0.5±0; IC50 [2, 10]: 64.6 µg/mL (≈ 365 µM); MBC ([2]; Edwardsiella ictaluri, S021039, bound is the highest test concentration, read-out: minimum bactericidal concentration (MBC)): > 177 µg/mL
76.4 (2.0) mg/L	–	–	46.1 ± 1.0 mg/L	–	–	196.0 (0) mg/L	544.4 (0)	19.6±0 mg/L and 19.6 (0) mg/L	54.4 (0)	C[C@@H](O)[C@@H]1C=C[C@H]2OC(=O)C=C[C@H]2O1 [Pyranopyran (2), (4aR,6S,8aR)-6-((R)-1-Hydroxyethyl)-6,8a-dihydropyrano[3,2-b]pyran-2-(4aH)-one]	MTT 24-h IC50 (cell viability) ([1]; tetrazolium bromide dye MTT): 78.4 (0) mg/L; MTT 24-h IC50 (cell viability) ([2]; tetrazolium bromide dye MTT): 22.1 (9.3) mg/L
–	54.6 (≈ 280 µM)	107 (≈ 550 µM)	–	20.5 (≈ 105 µM)	19.5 (≈ 99.9 µM)	–	297.9 (243.8)	–	54.2 (0)	NC(=O)[C@@H]1C=C[C@H]2OC(=O)C=C[C@H]2O1 [Pyranopyran amide (29), (2S,4aR,8aR)-6-Oxo-2,4a,6,8a-tetrahydropyrano[3,2-b]pyran-2-carboxamide]	melting point: 160 to 164 °C; IC50 [1, 9]: 75.1 µg/mL (≈ 385 µM); IC50 [2, 10]: 16.6 µg/mL (≈ 85.1 µM)
>224.0 mg/L	–	–	39.2 (1.1) mg/L	–	–	224.0 (0) mg/L	622.2 (0)	22.4 (0) mg/L	62.2 (0)	CC(=O)OC[C@@H]1C=C[C@H]2OC(=O)C=C[C@H]2O1 [Desmethylpyranopyran acetate (27), (2S,4aR,8aR)-6-Oxo-2,4a,6,8a-tetrahydropyrano[3,2-b]pyran-2-yl]methyl acetate]	MTT 24-h IC50 (cell viability) ([1]; tetrazolium bromide dye MTT): >224.0 mg/L; MTT 24-h IC50 (cell viability) ([2]; tetrazolium bromide dye MTT): 35.8 (4.5) mg/L

Second part, the molecule before the results:

Compound	24-h IC50 (50% inhibition concentration) [1, 5]	IC50 [1, 6] [µg/mL]	MIC ([1]; SE in parentheses) [µg/mL]	24-h IC50 (50% inhibition concentration) [2, 5]	IC50 [2, 7] [µg/mL]	MIC [2, 8] [µg/mL]	MIC (minimum inhibitory concentration) ([1]; SE in parentheses)	MIC RDCF (relative-to-drug-control florfenicol) [1]	MIC (minimum inhibitory concentration) ([2]; SE in parentheses)	MIC RDCF (relative-to-drug-control florfenicol) [2]	other results
CCc1cnc(C2=NC(C)(C(C)C)C(=O)N2)c(C(=O)O)c1 (stereo not shown) [imazethapyr]	–	–	–	–	–	–	–	–	–	–	IC50 [3]: 930 nM
CCC(CC)Nc1c([N+](=O)[O-])cc(C)c(C)c1[N+](=O)[O-] [pendimethalin]	–	–	–	–	–	–	–	–	–	–	IC50 [3]: 380 nM
CC(C)c1ccc(NC(=O)N(C)C)cc1 [isoproturon]	–	–	–	–	–	–	–	–	–	–	IC50 [3]: 350 nM
O=C1C=C[C@H]2O[C@H](CO)C=C[C@H]2O1 [Desmethylpyranopyran (28), (4aR,6S,8aR)-6-(Hydroxymethyl)-6,8a-dihydropyrano[3,2-b]pyran-2(4aH)-one]	–	76.4 (≈ 419 µM)	182 (≈ 999 µM)	–	48.2 (≈ 265 µM)	18.2 (≈ 99.9 µM)	–	505.6 (0)	–	50.6 (0)	IC50 [1, 9]: 79.2 µg/mL (≈ 435 µM); IC50 [2, 10]: 14.7 µg/mL (≈ 80.7 µM)
C#C[C@@H]1C=C[C@H]2OC(=O)C=C[C@H]2O1 [compound 36, (4aR,6S,8aR)-6-Ethynyl-6,8a-dihydropyrano[3,2-b]pyran-2(4aH)-one]	–	–	–	–	–	–	–	–	–	–	melting point: 153 to 154 °C
CC(=O)O[C@H](C)[C@@H]1C=C[C@H]2OC(=O)C=C[C@H]2O1 [Pyranopyran acetate (3), (4aR,6S,8aR)-6-((R)-1-Acetoxyethyl)-6,8a-dihydropyrano[3,2-b]pyran-2-(4aH)-one]	>238.0 mg/L	–	–	165.4 (1.2) mg/L	–	–	238 mg/L and 238.0 (0) mg/L	661.1 (0)	238.0 (0) mg/L	661.1 (0)	MTT 24-h IC50 (cell viability) ([1]; tetrazolium bromide dye MTT): >238.0 mg/L; MTT 24-h IC50 (cell viability) ([2]; tetrazolium bromide dye MTT): 90.4 (4.8) mg/L
